Measured values reported in patent publication US8859284B2, “Delivery of nanoparticles to neurons” (The United States of America, as represented by the …, priority 2009, dated 2014).
Where two headings read alike, the source gives them in different places. Square brackets hold non-standard residues; d marks the D form. Ends that are not written are not given here. Peptide text beside a SMILES is read from it. * marks the point of attachment. Palmitoyl = CCCCCCCCCCCCCCCC(=O)*; Dap = NC[C@H](N)C(=O)O; Aib = CC(C)(N)C(=O)O

Key:
HEK 293T/17 cells [1] = assay: Cellular delivery of QDs, intracellular fate by fluorescence microscopy; details: summary of QD delivery strategies; some agents also tested in COS-1
Protocol: Human embryonic kidney (HEK 293T/17) and African green monkey kidney (COS-1) cell lines (ATCC, Manassas, Va.) were cultured in complete growth medium (Dulbecco's Modified Eagle's Medium (DMEM; purchased from ATCC)) supplemented with 1% (v/v) antibiotic/antimycotic and 10% (v/v) heat inactivated fetal bovine serum (ATCC). Cells were cultured in T-25 flasks and incubated at 37° C. under 5% CO2 atmosphere and a subculture was performed every 3-4 days (see reference 13).
The QD delivery experiments were performed on adherent cells seeded into the wells of Lab-Tek 8-well chambered #1 borosilicate coverglass (Nalge Nunc, Rochester, N.Y.) coated with 2 μg/mL fibronectin. For electroporation and nucleofection, adherent cells were harvested by trypsinization prior to performing QD delivery to cells in suspension. Cells were then seeded to chambered coverglass wells and imaged after cell attachment. The endosomal marker AlexaFluor647-transferrin was included as indicated in the text. For imaging, cells were washed with phosphate buffered saline (PBS, 137 mM NaCl, 10 mM phosphate, 3 mM KCl, pH 7.4), fixed with 3.7% paraformaldehyde in PBS and nuclei were stained with DAPI (Sigma) unless otherwise indicated.
For electroporation, cells were harvested by trypsinization and recovered for 1 hour in complete growth medium, pelleted, and resuspended in PBS. 510 nm DHLA-PEG QDs (0.5 μM final concentration) were mixed with 1×10^4 cells to a final volume of 100 μL in PBS in a 0.2 mm electroporation cuvette. The cuvette was subjected to 100 V for a 20 ms pulse using a GenePulser XCell electroporator (Bio-Rad, Hercules, Calif.). Cells were resuspended in complete growth medium, seeded into fibronectin-coated 8-well chambered coverglass, fixed and imaged after 24 hrs. For nucleofection delivery, 1×10^6 cells were harvested and resuspended in 100 μL of NUCLEOFECTOR reagent (Amaxa, Gaithersburg, Md.). 510 nm DHLA-PEG QDs were included at a final concentration of 0.4 μM. The cell/QD/reagent mixture was pulsed in the NUCLEOFECTOR using a preset protocol adapted for each specific cell line (20, 21). Cells were cultured and imaged as described for electroporation.
The INFLUX cell-loading reagent mediates the intracellular release of materials internalized via pinocytic vesicles by delivering the materials to cells in a hypertonic medium followed by the transfer of the cells to a hypotonic medium to induce vesicle disruption (see reference 22). 510 nm DHLA-PEG QDs were diluted to a final concentration of 300-800 nM in the supplied hypertonic delivery media according to manufacturer's instructions and incubated on the cells for 30 min at 37° C. The hypertonic medium was exchanged for hypotonic medium (serum-free culture medium diluted by 40% with deionized water) and incubated on the cells for 3 min. The cells were then recovered in complete growth medium for 30 min and cultured for various lengths of time prior to washing and fixation for imaging.
520 nm QDs with a 1:1 mixed surface of DHLA:DHLA-PEG were incubated with LIPOFECTAMINE 2000 for 20 min in serum free medium at a ratio of 1 μL LIPOFECTAMINE 2000 per 1.5 pmol QD. The complexes, at a final QD concentration of 75 nM, were incubated with the cells for 4 hours, removed and replaced with complete growth medium. The cells were then cultured for 24-36 h prior to washing and fixation.
PEI was incubated with 520 nm mixed surface DHLA:DHLA-PEG QDs in serum free medium at a ratio of 10 μg PEI per 1 pmol QD for 15 min. […] The complexes were then diluted into serum free media to a final QD concentration of 75-100 nM, incubated with cells for 2 h and removed. Cells were then cultured in complete media for 24-36 h, washed and fixed.
A stock solution of 520 nm DHLA:DHLA-PEG QDs (1 μM in 0.1 M borate buffer, pH 8.9) was diluted to 0.5 μM in HEPES (4-(2-hydroxyethyl)-1-piperazineethanesulfonic acid, pH 8.2).

HEK 293T/17 cells [2] = details: cited from earlier work
[3] = system: COS-1 and HEK 293T/17 cells; assay: Cellular delivery of QDs, result stated for both cell lines together; type: cell-based, African green monkey; Human; details: for intracellular distribution of QDs: both cell lines; for degree of endocytic uptake: compared with Palm-1, 72 h observation
Description: (§1) Merged images were generated using Adobe PhotoShop.

HeLa cells = assay: QD uptake and endosomal escape in HeLa cells; type: cell-based; details: 163 HeLa cells, Palm-1 conjugated to a QD
Protocol: The Palm-1 peptide was also tested in HeLa cells, and found to be very effective in promoting endosomal escape.

COS-1 cells = assay: Cellular uptake and endosomal escape of QD-peptide assemblies, fluorescence microscopy; type: cell-based, African green monkey; details: COS1 cells
Protocol: as §1
The peptide assemblies were incubated with COS-1 cells for 1 hr, removed, and the cells were subsequently cultured for 24 hr prior to fixation. An AlexaFluor 647-transferrin (Tf) conjugate was included during the incubation to label the vesicles of the endocytic pathway. Cell nuclei were stained with DAPI.

HEK 293T/17 cells [4] = system: HEK 293T/17 cells
Protocol: Cellular toxicity was assessed using the CellTiter 96 Cell Proliferation Assay (Promega, Madison Wis.) according to the manufacturer's instructions. This assay is based upon the conversion of a tetrazolium substrate to a formazan product by viable cells at the assay end point (see reference 24). Cells (1×10^4 cells/well) were cultured in 96-well microtiter plates in complete growth medium in the presence of increasing concentrations of QDs, free peptide or polymer, or QDs in complex with peptide or polymer. In each case, the materials were incubated with the cells for the time required for efficient QD uptake. The materials were subsequently replaced with complete growth medium and the cells were cultured for 72 hours.

HEK 293T/17 cells [5] = assay: FRET monitoring of intracellular stability of polyhistidine-QD association; type: cell-based, Human; details: over three days, no QDs present
Protocol: as §1
To investigate this issue, QD-peptide conjugates were prepared that engaged in FRET and their intracellular interactions were monitored over time. 510 nm DHLA-capped QDs were first assembled with an average of ˜2 Cy3-labeled His6-peptides and then the CPP was added to form the full conjugate (schematic in FIG. 3A). Due to the peptide's small size and proximity of the Cy3 acceptor to the nanocrystal surface, this valence results in a ca. 40% quenching of the QD PL by FRET. The resulting conjugates were delivered to HEK 293T/17 cells and the cells were cultured for three days. QD-donor and Cy3-acceptor FRET interactions over time within the cells were measured by exciting the QD and collecting side-by-side split fluorescence images using the DualView system and deconvoluting the subsequent intensity data. […] When the Cy3/QD emission ratio (normalized and corrected for direct Cy3-acceptor excitation) was calculated a gradual decrease was observed over time, culminating in a 36% decrease over three days (FIG. 3C). […] When Cy3 was delivered to the endosomes as a Cy3-labeled transferrin conjugate (no QDs present), the fluorescence output of the dye decreased approximately 34% over the same time period, in excellent agreement with the decrease observed in the above QD-CPP-Cy3-labeled peptide constructs (FIG. 3D). […]

[6] = molecular target: T1, Palmitoyl Protein Thioesterase 1 (PPT1) (Homo sapiens, UniProt P50897); details: competitive inhibitors; acidic environments; cited from earlier work
T1 sequence (P50897 28-306): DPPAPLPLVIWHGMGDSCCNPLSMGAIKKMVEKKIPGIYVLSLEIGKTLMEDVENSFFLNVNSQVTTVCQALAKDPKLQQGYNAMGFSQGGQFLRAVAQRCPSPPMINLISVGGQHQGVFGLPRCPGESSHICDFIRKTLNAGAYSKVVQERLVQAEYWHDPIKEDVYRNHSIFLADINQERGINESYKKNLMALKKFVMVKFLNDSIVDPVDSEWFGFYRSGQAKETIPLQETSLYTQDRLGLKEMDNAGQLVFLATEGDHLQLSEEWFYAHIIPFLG

Compound: R9GGLA(Aib)SGWKH6 [CPP peptide]
- Quantum Dot Fate (HEK 293T/17 cells [1]): Endosomal, QDs punctate
- Toxicity (HEK 293T/17 cells [2]): minimally toxic

Compound: WGDapaVKIKKGL(A)4GG(H)6 (WG[Dap](Palmitoyl)VKIKKGLAAAAGGHHHHHH) [Palm-2, No (Pro)9, short linker]
- intracellular distribution of QDs [3]: remained completely sequestered within endosomes
- degree of endocytic uptake [3]: significant reduction in the degree of endocytic uptake

Compound: WGDapaVKIKKGLPAAGG(H)6 [Palm-3]
- intracellular distribution of QDs [3]: remained completely sequestered within endosomes
- degree of endocytic uptake [3]: significant reduction in the degree of endocytic uptake

Compound: WGDapaVKIKK(P)9GG(H)6 [JB577]
- QD uptake (HeLa cells): 90%
- endosomal escape of the cells with uptake (HeLa cells): 86%
- endosomal escape of the total (HeLa cells): 77%
- % Escape in cells with uptake (COS-1 cells; QD-peptide assemblies): 77%
- Overall uptake/escape: uptake (COS-1 cells; first word of the cell): High
- Overall uptake/escape: escape (COS-1 cells; second word of the cell): high
- Toxicity (HEK 293T/17 cells [4]): minimally toxic
- Quantum Dot Fate (HEK 293T/17 cells [1]): Cytosolic, QDs dispersed

Compound: Cy3-labeled transferrin conjugate: Cy3 delivered to endosomes as labeled transferrin, no QDs
- decrease of fluorescence output of the Cy3 dye (HEK 293T/17 cells [5]): approximately 34%

Compound: CC(C)C[C@H](NC(=O)CNC(=O)[C@H](Cc1c[nH]c2ccccc12)NC(=O)[C@H](Cc1c[nH]cn1)NC(=O)[C@H](Cc1c[nH]cn1)NC(=O)[C@H](Cc1c[nH]cn1)NC(=O)[C@H](Cc1c[nH]cn1)NC(=O)[C@H](Cc1c[nH]cn1)NC(=O)[C@@H](N)Cc1c[nH]cn1)C(=O)N[C@@H](C)C(=O)NC(C)(C)C(=O)N[C@@H](CO)C(=O)NCC(=O)N1CCC[C@H]1C(=O)N[C@@H](CCCCN)C(=O)N[C@@H](CCCCN)C(=O)N[C@@H](CCCCN)C(=O)N[C@@H](CCCNC(=N)N)C(=O)N[C@@H](CCCCN)C(=O)N[C@H](C(=O)O)C(C)C [NLS peptide, reference compound] (H-HHHHHHWGLA[Aib]SGPKKKRKV-OH)
- Toxicity (HEK 293T/17 cells [4]): minimally toxic

Compound: AcG(Pal)DapVKIKK
- inhibition of palmitoyl thioesterase [6]: low micromolar affinity

Compound: GDap(Pal)VKIKK
- inhibition of palmitoyl thioesterase [6]: low micromolar range
